# Reference: US11712434B2, “Compound having anti-cancer effect, and preparation method therefor and use thereof” (3D MEDICINES (BEIJING) CO., LTD., priority 2016, dated 2023)
# How the values were obtained:
# Test in all cases: Cell proliferation assay (Alamar Blue)
# Assay type in all cases: cell-based
# [1] = test system: HUH1; conditions: HUH1 liver cancer cell line, 6 days culture
# Summary of the method: (§1)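 Plated at 500~1×10^4 cells/well and allowed 4 h to settle before dosing. Compounds were tested at nine concentrations, highest 100 or 30 μM, in duplicate, then cultured 6 days. Resazurin conversion was read fluorimetrically.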
# [2] = test system: SNU182; conditions: SNU182 liver cancer cell line, 6 days culture
# Summary of the method: as §1
# [3] = test system: SW620; conditions: SW620 tumor cell line, 6 days culture
# Summary of the method: as §1
# [4] = test system: SNU739; conditions: SNU739 liver cancer cell line, 6 days culture
# Summary of the method: as §1
# [5] = test system: HLF; conditions: HLF liver cancer cell line, 6 days culture
# Summary of the method: as §1
# [6] = test system: LNCAP-clone-FGC; conditions: LNCAP-clone-FGC tumor cell line, 6 days culture
# Summary of the method: as §1
# [7] = test system: Hep3B2.1-7; conditions: Hep3B2.1-7 liver cancer cell line, 6 days culture
# Summary of the method: as §1
# [8] = test system: NCI-H661; conditions: NCI-H661 tumor cell line, 6 days culture
# Summary of the method: as §1
# [9] = test system: MFM-223; conditions: MFM-223 tumor cell line, 6 days culture
# Summary of the method: as §1
# [10] = test system: Alexander cells; conditions: Alexander cells liver cancer cell line, 6 days culture
# Summary of the method: as §1
# [11] = test system: HUH7; conditions: HUH7 liver cancer cell line, 6 days culture
# Summary of the method: as §1
# [12] = test system: HEPG2; conditions: HEPG2 liver cancer cell line, 6 days culture
# Summary of the method: as §1
# [13] = test system: NCI-H526; conditions: NCI-H526 tumor cell line, 6 days culture
# Summary of the method: as §1
# [14] = test system: JHH6; conditions: JHH6 liver cancer cell line, 6 days culture
# Summary of the method: as §1
# [15] = test system: Li-7; conditions: Li-7 liver cancer cell line, 6 days culture
# Summary of the method: as §1
# [16] = test system: NCI-H1648; conditions: NCI-H1648 tumor cell line, 6 days culture
# Summary of the method: as §1
# [17] = test system: 22RV1; conditions: 22RV1 tumor cell line, 6 days culture
# Summary of the method: as §1
# [18] = test system: NCI-H1703; conditions: NCI-H1703 (lung cancer cells), 6 days culture
# Summary of the method: as §1
# [19] = test system: SNU387; conditions: SNU387 liver cancer cell line, 6 days culture
# Summary of the method: as §1
# [20] = test system: LC-2-ad; conditions: LC-2-ad tumor cell line, 6 days culture
# Summary of the method: as §1
# [21] = test system: CCRF-CEM; conditions: CCRF-CEM tumor cell line, 6 days culture
# Summary of the method: as §1
# [22] = test system: HCCLM3; conditions: HCCLM3 tumor cell line, 6 days culture
# Summary of the method: as §1
# [23] = test system: DU145; conditions: DU145 tumor cell line, 6 days culture
# Summary of the method: as §1
# [24] = test system: SNU398; conditions: SNU398 liver cancer cell line, 6 days culture
# Summary of the method: as §1
# [25] = test system: KASUMI-1; conditions: KASUMI-1 (leukemia cells), 6 days culture
# Summary of the method: as §1
# [26] = test system: NCI-H716; conditions: NCI-H716 tumor cell line, 6 days culture
# Summary of the method: as §1
smiles,measurement,setting,value
Cc1ccc(F)c(NC(=O)Nc2ccc(-c3cccc4[nH]nc(NC(=O)CCCCCNC(=O)C[C@H](N)C(=O)N[C@@H](CCC(=O)N[C@@H](CCC(=O)N[C@@H](CCC(=O)N[C@@H](CCC(=O)O)C(=O)O)C(=O)O)C(=O)O)C(=O)O)c34)cc2)c1 [Compound 5],IC50,"[1]; Homo sapiens, HuH-1, 144 h",> 100 µM
same,IC50,"[2]; Homo sapiens, SNU-182, 144 h",> 100 µM
same,IC50,"[3]; Homo sapiens, SW-620, 144 h",> 100 µM
same,IC50,"[4]; SNU-739, 144 h",> 100 µM
same,IC50,[5]; 144 h,> 100 µM
same,IC50,"[6]; Homo sapiens, 144 h",> 100 µM
same,IC50,[7]; 144 h,> 100 µM
same,IC50,"[8]; Homo sapiens, 144 h",> 100 µM
same,IC50,"[9]; Homo sapiens, 144 h",> 100 µM
same,IC50,[10]; 144 h,> 100 µM
same,IC50,"[11]; Homo sapiens, Huh-7, 144 h",> 100 µM
same,IC50,"[12]; Homo sapiens, 144 h",72.2 µM
same,IC50,"[13]; Homo sapiens, 144 h",> 100 µM
same,IC50,[14]; 144 h,> 100 µM
same,IC50,[15]; 144 h,> 100 µM
same,IC50,"[16]; Homo sapiens, 144 h",> 100 µM
same,IC50,"[17]; Homo sapiens, 144 h",> 100 µM
same,IC50,"[18]; Homo sapiens, 144 h",2.81 µM
same,IC50,"[19]; Homo sapiens, SNU-387, 144 h",> 100 µM
same,IC50,"[20]; Homo sapiens, 144 h",> 100 µM
same,IC50,"[21]; Homo sapiens, 144 h",> 100 µM
same,IC50,"[22]; Homo sapiens, 144 h",> 100 µM
same,IC50,"[23]; Homo sapiens, DU-145, 144 h",> 100 µM
same,IC50,"[24]; Homo sapiens, SNU-398, 144 h",> 100 µM
same,IC50,"[25]; Homo sapiens, 144 h",4.26 µM
same,IC50,"[26]; Homo sapiens, 144 h",> 100 µM
Cc1ccc(F)c(NC(=O)Nc2ccc(-c3cccc4[nH]nc(NC(=O)CCCCCCCCCCCNC(=O)C[C@H](N)C(=O)N[C@@H](CCC(=O)O)C(=O)O)c34)cc2)c1 [Compound 7],IC50,[1],> 100 µM
same,IC50,[2],> 100 µM
same,IC50,[3],56.3 µM
same,IC50,[4],> 100 µM
same,IC50,[5],72.6 µM
same,IC50,[6],95.5 µM
same,IC50,[7],40.4 µM
same,IC50,[8],> 100 µM
same,IC50,[9],88.3 µM
same,IC50,[10],> 100 µM
same,IC50,[11],42.2 µM
same,IC50,[12],9.53 µM
same,IC50,[13],> 100 µM
same,IC50,[14],> 100 µM
same,IC50,[15],> 100 µM
same,IC50,[16],> 100 µM
same,IC50,[17],> 100 µM
same,IC50,[18],0.11 µM
same,IC50,[19],> 100 µM
same,IC50,[20],46.4 µM
same,IC50,[21],> 100 µM
same,IC50,[22],> 100 µM
same,IC50,[23],> 100 µM
same,IC50,[24],> 100 µM
same,IC50,[25],0.23 µM
same,IC50,[26],41.6 µM
Cc1ccc(F)c(NC(=O)Nc2ccc(-c3cccc4[nH]nc(NC(=O)CCCCCCCCCCCNC(=O)C[C@H](N)C(=O)N[C@@H](CCC(=O)N[C@@H](CCC(=O)N[C@@H](CCC(=O)N[C@@H](CCC(=O)O)C(=O)O)C(=O)O)C(=O)O)C(=O)O)c34)cc2)c1 [Compound 8],IC50,"[1]; Homo sapiens, HuH-1, 144 h",> 100 µM
same,IC50,"[2]; Homo sapiens, SNU-182, 144 h",> 100 µM
same,IC50,"[3]; Homo sapiens, SW-620, 144 h",65.3 µM
same,IC50,"[4]; SNU-739, 144 h",> 100 µM
same,IC50,[5]; 144 h,> 100 µM
same,IC50,"[6]; Homo sapiens, 144 h",> 100 µM
same,IC50,[7]; 144 h,80.2 µM
same,IC50,"[8]; Homo sapiens, 144 h",> 100 µM
same,IC50,"[9]; Homo sapiens, 144 h",> 100 µM
same,IC50,[10]; 144 h,> 100 µM
same,IC50,"[11]; Homo sapiens, Huh-7, 144 h",65.4 µM
same,IC50,"[12]; Homo sapiens, 144 h",11.5 µM
same,IC50,"[13]; Homo sapiens, 144 h",> 100 µM
same,IC50,[14]; 144 h,> 100 µM
same,IC50,[15]; 144 h,> 100 µM
same,IC50,"[16]; Homo sapiens, 144 h",> 100 µM
same,IC50,"[17]; Homo sapiens, 144 h",> 100 µM
same,IC50,"[18]; Homo sapiens, 144 h",0.19 µM
same,IC50,"[19]; Homo sapiens, SNU-387, 144 h",> 100 µM
same,IC50,"[20]; Homo sapiens, 144 h",82.4 µM
same,IC50,"[21]; Homo sapiens, 144 h",> 100 µM
same,IC50,"[22]; Homo sapiens, 144 h",> 100 µM
same,IC50,"[23]; Homo sapiens, DU-145, 144 h",> 100 µM
same,IC50,"[24]; Homo sapiens, SNU-398, 144 h",> 100 µM
same,IC50,"[25]; Homo sapiens, 144 h",0.39 µM
same,IC50,"[26]; Homo sapiens, 144 h",44.9 µM
Cc1ccc(F)c(NC(=O)Nc2ccc(-c3cccc4[nH]nc(NC(=O)CCCCCCCCCCCNC(=O)C[C@H](N)C(=O)N[C@@H](CCC(=O)N[C@@H](CCC(=O)N[C@@H](CCC(=O)N[C@@H](CCC(=O)N[C@@H](CCC(=O)N[C@@H](CCC(=O)N[C@@H](CCC(=O)N[C@@H](CCC(=O)N[C@@H](CCC(=O)O)C(=O)O)C(=O)O)C(=O)O)C(=O)O)C(=O)O)C(=O)O)C(=O)O)C(=O)O)C(=O)O)c34)cc2)c1 [Compound 9],IC50,[1],> 100 µM
same,IC50,[2],> 100 µM
same,IC50,[3],> 100 µM
same,IC50,[4],> 100 µM
same,IC50,[5],> 100 µM
same,IC50,[6],> 100 µM
same,IC50,[7],> 100 µM
same,IC50,[8],> 100 µM
same,IC50,[9],> 100 µM
same,IC50,[10],> 100 µM
same,IC50,[11],88.5 µM
same,IC50,[12],33.6 µM
same,IC50,[13],> 100 µM
same,IC50,[14],> 100 µM
same,IC50,[15],> 100 µM
same,IC50,[16],> 100 µM
same,IC50,[17],> 100 µM
same,IC50,[18],0.35 µM
same,IC50,[19],> 100 µM
same,IC50,[20],> 100 µM
same,IC50,[21],> 100 µM
same,IC50,[22],> 100 µM
same,IC50,[23],> 100 µM
same,IC50,[24],> 100 µM
same,IC50,[25],0.87 µM
same,IC50,[26],77.2 µM
